The test concerns the target T1, E. coli F1Fo ATP synthase (F1-ATPase) (Escherichia coli, UniProt P0ABA6+P0ABB0+P0ABB4).
T1 construct: gene atpD; with F1 alpha (atpA), gamma (atpG), delta and epsilon subunits; Fo (ab2c10–14) in the membrane preparation
The test is described as follows: ATPase activity assay (liberated Pi) on purified F1 and F1Fo membranes; reversal by dilution or centrifuge column. It is filed as biochemical.

Broadly, the IC50 is the concentration needed to halve the response being measured. Turning to `CC1=CC(=O)C(C(C)C)=CC1=O` [TQ, thymoquinone], the half-maximal inhibitory concentration (IC50) is approximately 37 µM.

The values are drawn from article PMC4440651, “Thymoquinone Inhibits Escherichia coli ATP Synthase and Cell Growth” (PLoS ONE, 2015).
